# Assay results: patent US9561228B2 (Celgene Avilomics Research, Inc., priority 2013, dated 2017)
# What was measured:
# [1] = tested on: HT-29 cells (colorectal adenocarcinoma); test: Inhibition of cancer cell proliferation, HT-29 (CellTiterGlo, 72 hours); format: cell-based; details: Homo sapiens
# Protocol: Measurement of Inhibition of Cancer Cell Proliferation (HT-29/Colorectal Adenocarcinoma)
# The following protocol used an HT-29 cell line, which cell line is a model for colorectal adenocarcinoma. HT-29 cells were split and 3000 cells in 100 μl of growth medium were added per well of a flat-bottom 96-well plate. A two-fold test compound solution in serum-free RPM1640 was made, starting at 5,000 nM. Then, 3-fold serial dilutions were made across the plate from well 1 to well 11. Well 12, the last well in a row on the plate, was left as untreated control. 100 μl compound solutions were then transferred to the wells, so the total volume of media was 200 μl per well. Plates were returned to a 37° C. incubator, and the cells were cultured for 72 hours. To measure cell proliferation after 72 hours, media was discarded from the plates, 50 μl/well of fresh medium was added, and 50 μl CellTiterGlo solution was added (Promega Cat#G7573). The plate was covered with a dark lid and incubated for 10 min. A white sealing tape was applied to the bottom of the plate, and the plate was read in a luminescence plate reader. […] A 2-fold serial dilution was used to generate 8 cell densities from 50,000-390 cells per well in 50 μl media. 50 μl CellTiterGlo was added per well, and the plate was read in a luminescence plate reader after 10 min. The reading was plotted vs. cell number to generate a standard curve and the equation of the curve fit. The compound-treated sample luminescence readings were converted to cell numbers using the curve-fit equation. The percent of inhibition, using untreated control as 100% growth, was then calculated. GI50 was then calculated by GraphPad Prism.
# [2] = tested on: ERK1/2 phosphorylation of p90RSK in HT29 cells; test: pRSK MSD Assay in HT29 cells; format: cell-based; details: Homo sapiens, HT-29, read-out: ERK1/ERK2 PRSK MSD HT29 EC50
# Protocol: The protocol below describes an assay to measure the kinase activity of ERK1/2 to phosphorylate a substrate, p90RSK, in the presence or absence of a test compound. This experiment was conducted using a Mesoscale Discovery plate. The day before the assay, HT29 cells were split and plated at 50,000 cells/well in complete growth media. After allowing cells to adhere, the media was removed and replaced with media containing 0.1% FBS and incubated overnight. Blank MSD plates (Mesoscale Discovery, Cat # L15XA3) were coated with 25 μl/well RSK capture antibody (BD Biosciences, Cat. #610226) and incubated at 4° C. overnight, then blocked with 150 μl of 3% BSA solution. The next day, the media from the cell culture plate was removed and replaced with 100 μl of media containing a test compound and incubated for 120 minutes at 37° C. The media was removed and replaced with 55 μl per well of lysis buffer with protease inhibitors (Roche Biosciences, Cat. #11836170001) and phosphatase inhibitors (Sigma-Aldrich, Cat. # P-0044 and P-5726), followed by incubation at 4° C. for 30 minutes. 50 μl of lysate was transferred to a blocked MSD plate, followed by incubation at room temperature for 2 hours under constant shaking. The plate was washed 3 times with MSD wash buffer (Mesoscale Discovery, Cat. # R617TX), and 25 μl/well phospho-RSK (pRSK) detection antibody (Cell Signaling Technology, Cat. #9335) was added with Sulfo-tagged detection antibody (Mesoscale Discovery, Cat. # R32AB-1) diluted in 1% BSA in MSD wash buffer. This mixture was incubated for 1 hour at room temperature under constant shaking. The plate was washed 3 times, and 150 μl 1×MSD read buffer was added, followed by signal detection in an MSD plate reader.
# MEK1 activated ERK1 = target: T1, MEK1 activated ERK1 (Homo sapiens, UniProt P27361); test: Omnia continuous-read kinase assay for potency against MEK1 activated ERK1; format: biochemical; details: MEK1 activated ERK1, ATP at KM; read-out: ERK1 Omnia WT ATP KM IC50
# T1 construct: purchased Millipore (Billerica, Mass.) 14-439-K
# T1 sequence (P27361 whole entry): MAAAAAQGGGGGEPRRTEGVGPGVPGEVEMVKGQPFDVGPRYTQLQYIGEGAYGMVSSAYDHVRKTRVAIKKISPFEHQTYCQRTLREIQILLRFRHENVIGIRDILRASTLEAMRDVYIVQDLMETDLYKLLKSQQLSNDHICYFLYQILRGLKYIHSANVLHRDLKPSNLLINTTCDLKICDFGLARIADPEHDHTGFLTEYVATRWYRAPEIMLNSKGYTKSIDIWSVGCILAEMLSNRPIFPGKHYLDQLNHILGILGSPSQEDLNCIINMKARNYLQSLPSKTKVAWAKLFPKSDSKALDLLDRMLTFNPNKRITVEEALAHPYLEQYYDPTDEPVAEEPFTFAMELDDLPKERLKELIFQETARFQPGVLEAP
# Method in brief: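 Apparent IC50 came from initial reaction slopes (RFU vs time) plotted against log inhibitor with a variable-slope fit. Reactions were started with ERK1 (4 nM final) added to 50 μM ATP, roughly at its appKM, and 10 μM Sox-conjugated ST17 peptide in 20 mM Tris pH 7.5, 5 mM MgCl2. Fluorescence was monitored every 71 seconds.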
GI50 [1] [nM],EC50 [2] [nM],IC50 (MEK1 activated ERK1) [nM],SMILES
> 1000,–,–,"C=CC(=O)N[C@@H]1CCCC[C@H]1Nc1nc(Nc2cc(C(=O)NOC)ccc2C)ncc1Cl [Compound I-190, 3-((4-(((1R,2R)-2-acrylamidocyclohexyl)amino)-5-chloropyrimidin-2-yl)amino)-N-methoxy-4-methylbenzamide]"
> 1000,> 1000,–,"C=CC(=O)Nc1ccccc1Nc1nc(Nc2ccc(OCCCNC(=O)CCCC(=O)NCCCOCCOCCOCCCNC(=O)CCCC[C@H]3SC[C@H]4NC(=O)N[C@H]43)cc2OC)ncc1Cl [Compound I-302, N^1-(3-(4-((4-((2-acrylamidophenyl)amino)-5-chloropyrimidin-2-yl)amino)-3-methoxyphenoxy)propyl)-N^5-(15-oxo-19-((3aR,4R,6aS)-2-oxohexahydro-1H-thieno[3,4-d]imidazol-4-yl)-4,7,10-trioxa-14-azanonadecyl)glutaramide]"
> 1000,–,–,"C=CC(=O)Nc1ccccc1Oc1nc(Nc2ccc(N3CCN(C(C)=O)CC3)cc2OC)ncc1C(N)=O [Compound I-258, 2-((4-(4-acetylpiperazin-1-yl)-2-methoxyphenyl)amino)-4-(2-acrylamidophenoxyl)pyrimidine-5-carboxamide]"
> 1000,–,–,CCOCCC(=O)Nc1ccccc1Nc1nc(Nc2cc(C(N)=O)ccc2C)ncc1Cl [Compound I-130]
–,> 1000,101 to 500,"C=C(C)S(=O)(=O)Nc1cc(F)ccc1Nc1nc(Nc2cc(C(N)=O)ccc2C)ncc1C(F)(F)F [Compound I-87, 3-((4-((4-Fluoro-2-(1-methylvinylsulfonamido)phenyl)amino)-5-(trifluoromethyl)pyrimidin-2-yl)amino)-4-methylbenzamide]"
–,> 1000,101 to 500,"C=CC(=O)Nc1ccccc1Nc1nc(Nc2cc(C(=O)O)ccc2C)ncc1Cl [Compound I-225, 3-((4-((2-acrylamidophenyl)amino)-5-chloropyrimidin-2-yl)amino)-4-methylbenzoic acid]"
–,> 1000,501 to 999,"O=C(CCl)Nc1ccccc1Nc1nc(N[C@H]2CCCN(C(=O)CCl)C2)ncc1C(F)(F)F [Compound I-31, (S)-2-Chloro-N-(2-((2-((1-(2-chloroacetyl)piperidin-3-yl)amino)-5-(trifluoromethyl)pyrimidin-4-yl)amino)phenyl)acetamide]"
–,> 1000,501 to 999,"C=CC(=O)N(C)c1ccccc1Nc1nc(Nc2cc(C(N)=O)ccc2C#N)ncc1Cl [Compound I-196, 3-((5-chloro-4-((2-(N-methylacrylamido)phenyl)amino)pyrimidin-2-yl)amino)-4-cyanobenzamide]"
–,101 to 500,501 to 999,"C=CC(=O)Nc1cc(C)ccc1Nc1nc(Nc2ccnc(Cl)c2)ncc1Cl [Compound I-230, N-(2-((5-chloro-2-((2-chloropyridin-4-yl)amino)pyrimidin-4-yl)amino)-5-methylphenyl)acrylamide]"
–,101 to 500,101 to 500,"C=CC(=O)Nc1ccccc1Nc1nc(Nc2cc(C(N)=O)ccn2)ncc1C(F)(F)F [Compound I-83, 2-((4-((2-Acrylamidophenyl)amino)-5-(trifluoromethyl)pyrimidin-2-yl)amino)isonicotinamide]"
–,501 to 999,101 to 500,"C=CC(=O)Nc1ccccc1Nc1nc(Nc2cc(C(=O)NOC)ccc2OC)ncc1C(F)(F)F [Compound I-67, 3-((4-((2-Acrylamidophenyl)amino)-5-(trifluoromethyl)pyrimidin-2-yl)amino)-N,4-dimethoxybenzamide]"
–,> 1000,101 to 500,"C=CC(=O)Nc1ccccc1Nc1nc(Nc2cc(NC(=O)CCCC(=O)NCCCOCCOCCOCCCNC(=O)CCCC[C@@H]3SC[C@@H]4NC(=O)N[C@@H]43)cc(C(N)=O)c2)ncc1Cl [Compound I-304, N^1-(3-((4-((2-acrylamidophenyl)amino)-5-chloropyrimidin-2-yl)amino)-5-carbamoylphenyl)-N^5-(15-oxo-19-((3aS,4S,6aR)-2-oxohexahydro-1H-thieno[3,4-d]imidazol-4-yl)-4,7,10-trioxa-14-azanonadecyl)glutaramide]"
–,101 to 500,101 to 500,"C=CC(=O)Nc1ccccc1Nc1nc(Nc2ccc(F)cc2OC)ncc1Cl [Compound I-210, N-(2-((5-chloro-2-((4-fluoro-2-methoxyphenyl)amino)pyrimidin-4-yl)amino)phenyl)acrylamide]"
–,> 1000,101 to 500,"C=CC(=O)Nc1ccccc1Nc1nc(Nc2cc(C(=O)NOCCO)ccc2C#N)ncc1C(F)(F)F [Compound I-75, 3-((4-((2-Acrylamidophenyl)amino)-5-(trifluoromethyl)pyrimidin-2-yl)amino)-4-cyano-N-(2-hydroxyethoxyl)benzamide]"
–,> 1000,101 to 500,"C=CC(=O)Nc1ccccc1Nc1nc(Nc2cc(C(=O)NOC)ccc2C#N)ncc1Cl [Compound I-195, 3-((4-((2-acrylamidophenyl)amino)-5-chloropyrimidin-2-yl)amino)-4-cyano-N-methoxybenzamide]"
–,> 1000,501 to 999,"C=CC(=O)Nc1ccccc1Nc1nc(N[C@H]2CCCN(C(=O)[C@H](C)O)C2)ncc1Cl [Compound I-138, N-(2-((5-chloro-2-(((S)-1-((S)-2-hydroxypropanoyl)piperidin-3-yl)amino)pyrimidin-4-yl)amino)phenyl)acrylamide]"
–,> 1000,501 to 999,"C=C(C)S(=O)(=O)Nc1cc(F)ccc1Nc1nc(Nc2cc(C(C)=O)ccc2C)ncc1C(F)(F)F [Compound I-99, N-(2-((2-((5-acetyl-2-methylphenyl)amino)-5-(trifluoromethyl)pyrimidin-4-yl)amino)-5-fluorophenyl)prop-1-ene-2-sulfonamide]"
–,> 1000,101 to 500,"O=C(CCl)N[C@@H]1CCCC[C@H]1Nc1nc(N[C@H]2CCCN(C(=O)CO)C2)ncc1C(F)(F)F [Compound I-35, 2-Chloro-N-((1R,2R)-2-((2-(((S)-1-(2-hydroxyacetyl)piperidin-3-yl)amino)-5-(trifluoromethyl)pyrimidin-4-yl)amino)cyclohexyl)acetamide]"
–,501 to 999,101 to 500,"C=CC(=O)N[C@H]1CCCC[C@@H]1Nc1nc(N[C@H]2CCCN(C(=O)CO)C2)ncc1Cl (racemic) [Compound I-141, Rac-N-(2-((5-chloro-2-(((R)-1-(2-hydroxyacetyl)piperidin-3-yl)amino)pyrimidin-4-yl)amino)-trans-cyclohexyl)acrylamide]"
–,> 1000,> 1000,"C/C=C/C(=O)Nc1cc(F)ccc1Nc1nc(N[C@@H]2CCC[C@H](C(N)=O)C2)ncc1C(F)(F)F (racemic) [Compound I-6, Rac-(E)-3-((4-((2-(but-2-enamido)-4-fluorophenyl)amino)-5-(trifluoromethyl)pyrimidin-2-yl)amino)-cis-cyclohexanecarboxamide]"
–,> 1000,> 1000,"CC(=O)N1CCC[C@H](Nc2ncc(C(F)(F)F)c(NC3C4C=CC(C4)C3C(=O)NC#N)n2)C1 (mixture of isomers) [Compound I-25, Rac-3-((2-(((S)-1-acetylpiperidin-3-yl)amino)-5-(trifluoromethyl)pyrimidin-4-yl)-cis-amino)-N-cyanobicyclo[2.2.1]hept-5-ene-2-carboxamide]"
–,> 1000,> 1000,"C=CC(=O)N[C@@H]1CCCC[C@H]1Nc1nc(Nc2cc(C(=O)NOC)ccc2C)ncc1Cl (racemic) [Compound I-188, Rac-trans-3-((4-((2-acrylamidocyclohexyl)amino)-5-chloropyrimidin-2-yl)amino)-N-methoxy-4-methylbenzamide]"
